# Values of other authors as cited in patent US20230303474A1, “TOTAL SYNTHESES OF SPECIALIZED PRO-RESOLVING MEDIATORS (SPMS), STRUCTURAL ISOMERS AND STRUCTURAL ANALOGS” (UNIVERSITÉ LAVAL, priority 2020, published 2023).
# System: skeletal muscle cells
# Details: background statement citing ref. 19
row,Compound,release of the prototypic myokine interleukin-6 (IL-6)
1,"CC/C=C\C[C@H](O)\C=C/C=C/C=C/[C@H](O)C/C=C\C/C=C\CCC(=O)O [PD1, (4Z,7Z,10R,11E,13E,15Z,17S,19Z)-10,17-dihydroxydocosa-4,7,11,13,15,19-hexaenoic acid]",ineffective
2,"CC/C=C\C[C@H](O)/C=C/C=C\C=C\[C@@H](O)C/C=C\C/C=C\CCC(=O)O [PDX, (4Z,7Z,10S,11E,13Z,15E,17S,19Z)-10,17-dihydroxydocosa-4,7,11,13,15,19-hexaenoic acid]",induce the release
